Assay results from patent US8680058B2, “Selectively targeted antimicrobial peptides and the use thereof” (priority 2006, dated 2014).
Entries after “also recorded” stand apart in the source; their conditions may differ. Read-outs that look alike come from different tables or passages of the source. No end group written: not given here.

How the values were obtained:
[1] = system: S. sanguinis biofilms; test: Single-species biofilm regrowth after peptide exposure, S. sanguinis; format: cell-based; settings: 25 μM peptide, 1 min exposure
Description: (§1) 1.5 Examination of antimicrobial activity against single-species biofilms. To initiate biofilm formation, ˜1×10^7 bacteria per well (from overnight cultures) were seeded in TH medium (100 μL) to a 96-well flat-bottom plate. For all streptococci except S. mutans, the medium was supplemented with 0.5% (w/v) mannose and glucose. S. mutans UA159 biofilms were grown with 0.5% (w/v) sucrose. Plates were then centrifuged briefly to pellet the cells, and bacteria were incubated for 3-4 hours at 37° C. for biofilm formation. After incubation, the supernatant was carefully removed and biofilms were treated with 25 μM peptide in 1×PBS or 1×PBS alone for 1 min. The peptide solution was then removed and 100 μL TH was added to further dilute any remaining peptide. To minimize biofilm loss, cells were briefly centrifuged after TH addition, after which the supernatants were removed and fresh medium plus appropriate sugars were returned. Cells were then incubated anaerobically at 37° C. and biofilm growth was monitored over time by measuring absorbance at OD600 with a microplate spectrophotometer (Benchmark Plus, BioRad).

[2] = system: S. sanguinis; format: cell-based, S. sanguinis NY101
Description: (§2) 1.3 Determination of antimicrobial activity. The general antimicrobial activity of peptides against planktonic bacteria was determined by a MIC assay in TH broth (all oral streptococci) (Qi et al., 2005).
(§3) S. mutans, S. gordonii Challis (DL1), and S. sanguinis NY101 strains were grown in Todd Hewitt (TH, Fisher) broth medium at 37° C. under anaerobic conditions (80% N2, 10% CO2, and 10% H2). S. mutans strains UA159 (Ajdic et al., 2002), ATCC 25175, and T8 (Rogers, 1975), are wild-type clinical isolates, while comD is a knockout mutant that was constructed previously from the wild-type UA140 background (Qi et al., 2005). Luciferase expressing S. mutans strain JM11 was constructed from UA140 as described (Merritt et al., 2005). Exponentially growing bacterial cells were diluted to ˜1×10^5 cfu/mL in TH and placed into 96-well plates (Fisher). Peptides were then serially diluted and added to the bacteria.

[3] = system: S. mutans biofilms; test: Single-species biofilm regrowth after peptide exposure, S. mutans; format: cell-based, Streptococcus mutans; settings: 25 μM peptide, 1 min exposure
Description: as §1

[4] = system: S. gordonii; format: cell-based, S. gordonii Challis (DL1)
Description: as §2, §3

[5] = system: S. mutans; format: cell-based, Streptococcus mutans
Description: as §2, §3

[6] = system: S. mutans UA159 and comD; test: Binding of fluorescently labeled peptides to S. mutans (fluorescence microscopy); set-up: species or system Streptococcus mutans; settings: fluorescently labeled peptide
Description: To determine whether there was a region within the CSPC16 sequence that was responsible for S. mutans-specific binding, we synthesized a series of fluorescently labeled CSPC16 fragments, and analyzed their ability to bind to S. mutans. The following strategies were utilized in dissecting the CSPC16 sequence (Table 2): First, a series of fragments were constructed by generating deletions of 3 or 4 amino acids, from the N to C terminus, across the CSPC16 sequence (C16-1 to C16-5). Peptides lacking larger portions of the C or N termini of CSPC16 were also synthesized (C16-6 to C16-12). Additionally, peptides with Arg to […] (a positive to negative change in charge) (C16-4) or Phe to Gly substitutions (for a general decrease in hydrophobicity) (C16-3), as well as peptides representing a 4-residue Ala scan of the C16 sequence were constructed (C 16-15 to C16-18). […] These peptides include C16 (SEQ ID NO 1), C16-3 (SEQ ID NO 39), C16-4 (SEQ ID NO 40), C16-5 (SEQ ID NO 41), C16-6 (SEQ ID NO 42), C16-11 (SEQ ID NO 47), C16-12 (SEQ ID NO 5), C16-16 (SEQ ID NO 51), C16-17 (SEQ ID NO 52), and C16-18 (SEQ ID NO 53).
(§4) 1.2 Fluorescent labeling of peptides and fluorescence microscopy. Aliquots of CSPC16 (SEQ ID NO 2), CSP-fragment peptides (Table 2), and C16G2 (SEQ ID NO 4) were labeled with carboxyfluorescein (Sigma) as described previously (Eckert et al., 2006). After peptide cleavage but prior to the bacterial labeling assay, fluorescence intensity per μM peptide was checked fluorimetrically (λex=488 nm, λem=520 nm VersaFluor, BioRad) and found to be relatively similar (data not shown). To evaluate the level of peptide binding to bacteria, streptococci from an overnight culture (OD600 of 0.7-1.0) were washed with phosphate buffered saline (1×PBS), diluted 1:2 into 1×PBS, and exposed to peptide (16 μM) for 5 min at 25° C. After incubation with peptide, unbound agent was removed from the bacteria by three cycles of centrifugation (5 min, 16,000×g) and resuspension in 1×PBS. Labeling of oral streptococci was evaluated using brightfield and fluorescence microscopy (Nikon E400) at a 40× magnification. The digital images utilized for the semi-quantitative binding assessment were acquired with the factory-supplied software (SPOT, Diagnostics).

[7] = system: other oral streptococci; test: Binding of fluorescently labeled peptides to other oral streptococci; settings: fluorescently labeled peptide
Description: as §4

[8] = system: S. gordonii biofilms; test: Single-species biofilm regrowth after peptide exposure, S. gordonii; format: cell-based; settings: 25 μM peptide, 1 min exposure
Description: as §1

[9] = system: P. aeruginosa; test: microbe, parasite or virus in culture; format: cell-based, Pseudomonas aeruginosa
Description: 2.3 Antimicrobial Activities. The general antimicrobial activities of G10KHc, G10, and tobramycin against clinical isolates of P. aeruginosa were evaluated by minimum inhibitory concentration (MIC) assay as previously described (Eckert et al., 2006) and shown in Table 5. MICs are reported in μM, though for familiarity, 1 μM tobramycin=0.468 μg/mL. P. aeruginosa were grown to log phase and adjusted to ˜1×10^5 cfu/mL in Mueller-Hinton (MH) broth and added to 96-well plates. Two-fold serial dilutions of peptide were then added to bacteria and the plates incubated for 18-24 hours at 37° C. MIC was determined as the concentration of peptide present in the last clear well (no growth). […] In contrast to tobramycin, G10KHc was also effective against aminoglycoside and multiple-antibiotic resistant P. aeruginosa isolated from CF patients (AGR10, MR15). Additionally, as mucoid P. aeruginosa are often associated with reduced susceptibility to antimicrobial agents, we were encouraged to find that G10KHc was active against one such strain, PDO300.

[10] = system: S. mutans JM11 mixed with S. mitis, S. sobrinus, S. gordonii, S. sanguinis; test: Selectivity against multi-species biofilms of oral streptococci; format: cell-based
Description: Selectivity of STAMPs against multi-species biofilms of oral streptococci. To measure selectivity of STAMPs, mixed biofilms were seeded to 48-well plates. Streptococcus mitis, S. sobrinus, S. gordonii, and S. sanguinis were mixed with S. mutans strain JM11 (spectinomycin resistant) at a 1:1:1:1:10 ratio, total of 10^5 cells/well. Biofilms were grown overnight in TH medium with 1% sucrose, 1% dextrose, and 1% mannose, for 18-24 h. Mature biofilms were treated with PBS plus STAMP as described for the single-species biofilm assay, with the same controls. After treatment, biofilms were washed 2× in PBS and then physically disrupted with a sterile pipette tip in 100 μL PBS per well. Cell suspensions were then serially diluted 10-fold to 10^-6. Diluted suspensions were then plated on TH medium and TH supplemented with spectinomycin, 800 μg/mL. The total amount of biofilm killing (all streptococci) was determined by counting colonies from TH-only plates. Controls: 100% of untreated corresponds to the number of cfu/mL recorded from untreated biofilms, 0% survival was obtained from ethanol sterilized samples. S. mutans killing was determined from quantitating colonies on TH-spectinomycin plates, and combined total cfu/mL, was utilized to calculate the ratio of S. mutans:total population. 1:1 ratio indicates no selectivity.

| Substance | biofilm re-growth after treatment (OD600) [1] | MIC [2] | biofilm re-growth after treatment (OD600) [3] | MIC [4] | MIC ([5]; S. mutans UA159) | MIC ([5]; S. mutans comD) | also measured |
| --- | --- | --- | --- | --- | --- | --- | --- |
| TFFRLFNRSGGGFKKFWKWFRRF-OH [Peptide M8-33] | not affected | 20 ± 2.0 µM | capable of retarding S. mutans biofilm growth | 10 ± 2.5 µM | 2.5 ± 2.0 µM | 2.5 ± 2.0 µM |  |
| TFFRLFTQALGK (synthetic competence stimulating peptide (CSP) fragment peptide C16-3 with internal deletion) |  |  |  |  |  |  | binding to S. mutans (in words) [6]: binding but at a weaker intensity than CSPC16 |
| TFFRLFNR-OH [CSPM8, TFFRLFNR] |  | >60 µM |  | >60 µM | >60 µM | >60 µM | binding to other oral streptococci [7]: little or no binding; MIC ([5]; S. mutans 25175): >60 µM; MIC ([5]; S. mutans T8): >60 µM |
| TFFRL (synthetic competence stimulating peptide (CSP) fragment peptide C16-11 with C-terminal deletion) |  |  |  |  |  |  | binding to S. mutans (in words) [6]: binding but at a weaker intensity than CSPC16 |
| TFFRLFNRGGGKNLRIIRKGIHIIKKY-NH2 [Peptide M8G2] | not those of S. sanguinis | 15 ± 2.5 µM | capable of inhibiting the recovery of S. mutans biofilms | 20 ± 5.0 µM | 3.25 ± 1.9 µM | 4.0 ± 2.0 µM | MIC ([5]; S. mutans 25175): 3.5 ± 0.5 µM |
| KNLRIIRKGIHIIKKY-NH2 [Peptide G2, KNLRIIRKGIHIIKKY*] | grew similarly to untreated biofilms | 33.6 ± 7.5 µM | unaffected | 41.3 ± 14.0 µM | 12.1 ± 4.5 µM | 15.3 ± 4.2 µM | biofilm re-growth after treatment (OD600) [8]: grew similarly to untreated biofilms; MIC ([5]; S. mutans 25175): 14.8 ± 2.0 µM; MIC ([5]; S. mutans T8): 14.2 ± 1.5 µM |
| KKHRKHRKHRKH (synthetic targeting peptide Cat-1 domain, KH domain) |  |  |  |  |  |  | antimicrobial activity of targeting domain alone ([9]; data not shown): does not have any antimicrobial activity |
| TFFRLFNRSFTQALGK-OH [CSPC16, TFFRLFNRSFTQALGK] | grew similarly to untreated biofilms | >60 µM | unaffected | >60 µM | >60 µM | >60 µM | biofilm re-growth after treatment (OD600) [8]: grew similarly to untreated biofilms; binding to S. mutans (in words) [6]: detected as bound; also recorded: could specifically bind to S. mutans; binding to other oral streptococci [7]: not to other oral streptococci; MIC ([5]; S. mutans 25175): >60 µM; MIC ([5]; S. mutans T8): >60 µM |
| TFFRAAAASFTQALGK (synthetic competence stimulating peptide (CSP) fragment peptide C16-16 with 4-residue Ala scan) |  |  |  |  |  |  | binding to S. mutans (in words) [6]: binding but at a weaker intensity than CSPC16 |
| FKKFWKWFRRF-OH [Peptide S6L3-33, FKKFWKWFRRF] |  | 40 ± 7.5 µM |  | 20 ± 5.0 µM | 7.0 ± 3.0 µM | 6.5 ± 2.5 µM |  |
| TRRRLFNRSFTQALGKSGGGFKKFWKWFRRF-OH [Peptide C16-33] | not affected | 13.3 ± 5.8 µM | capable of retarding S. mutans biofilm growth | 14.6 ± 5.0 µM |  |  |  |
| NIFEYFLEGGGKLFKFLRKHLL (synthetic selectively/specifically targeted antimicrobial peptide (STAMP) chimeric polypeptide 1903-BD2.21) |  |  |  |  |  |  | impact on total cfu/mL population / other oral streptococci (in words) ([10]; multi-species biofilm, 20 min): some impact on other oral streptococci; reduction of total population ([10]; multi-species biofilm, 20 min): about 30% |
| KKHRKHRKHRKHGGSGGSKNLRRIIRKGIHIIKKYG [Peptide G10KHc] |  |  |  |  |  |  | MIC range [9]: 0.5 to 29 µM; mean MIC [9]: 6.22 µM |
| TFFRLFNRSFTQALGKGGGKLFKFLRKHLL (synthetic selectively/specifically targeted antimicrobial peptide (STAMP) chimeric polypeptide C16-BD2.21) |  |  |  |  |  |  | ratio of surviving S. mutans to total Streptococci ([10]; 1:1 ratio indicates no selectivity): 0.075; impact on total cfu/mL population / other oral streptococci (in words) ([10]; multi-species biofilm, 20 min): no impact on the total cfu/mL population |
| TFFRLFNRAAAAALGK (synthetic competence stimulating peptide (CSP) fragment peptide C16-17 with 4-residue Ala scan) |  |  |  |  |  |  | binding to S. mutans (in words) [6]: binding but at a weaker intensity than CSPC16 |
| SGSLSTFFRLFNRSFTQALGK-OH [CSP, reference compound] | grew similarly to untreated biofilms |  | unaffected |  | 50.8 ± 9.3 µM | >60 µM | biofilm re-growth after treatment (OD600) [8]: grew similarly to untreated biofilms; MIC ([2]; S. sanguinis): >60 µM; MIC ([4]; S. gordonii): >60 µM; MIC ([5]; S. mutans 25175): >60 µM; MIC ([5]; S. mutans T8): >60 µM |
| KLFKFLRKHLL-OH [BD2.21, KLFKFLRKHLL] |  |  |  |  |  |  | MIC ([5]; planktonic S. mutans): 5.5 µM |
